Test results reported in patent US9085555B2, “Complement pathway modulators and uses thereof” (priority 2011, dated 2015).

Biological target: Factor D (Homo sapiens (Human), UniProt P00746)
Assay: biochemical
Format: biochemical
Settings: read-out: IC50

Factor D, sequence (P00746 26-253): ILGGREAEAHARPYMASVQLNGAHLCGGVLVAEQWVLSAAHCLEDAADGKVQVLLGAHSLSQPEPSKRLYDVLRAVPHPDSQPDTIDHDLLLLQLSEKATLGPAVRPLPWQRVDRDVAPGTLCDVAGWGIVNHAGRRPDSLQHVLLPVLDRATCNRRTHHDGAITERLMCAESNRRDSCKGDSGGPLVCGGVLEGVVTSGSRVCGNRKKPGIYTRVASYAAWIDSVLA

## Cc1ccc(Cl)cc1CNC(=O)[C@@H]1C[C@H](N)CN1C(=O)Nc1cn(C(N)=O)c2ccccc12 [Example 58, (2S,4S)-4-Amino-pyrrolidine-1,2-dicarboxylic acid 1-[(1-carbamoyl-1H-indol-3-yl)-amide] 2-(5-chloro-2-methyl-benzylamide)]
  IC50: 350 nM

## NC(=O)n1cc(NC(=O)N2C[C@H]3C[C@H]3[C@H]2C(=O)N[C@H](CO)c2cccc(Cl)c2F)c2ccccc21 [Example 212, (1R,2S,5S)-3-Azabicyclo[3.1.0]hexane-2,3-dicarboxylic acid 3-[(1-carbamoyl-1H-indol-3-yl)-amide] 2-{[(S)-1-(3-chloro-2-fluoro-phenyl)-2-hydroxy-ethyl]-amide}]
  IC50: 10 nM

## CC(=O)N[C@H]1[C@@H](C(=O)NCc2cccc(Cl)c2F)N(C(=O)Nc2cn(C(N)=O)c3ccccc23)C[C@@H]1F [Example 206, (2S,3S,4S)-3-Acetylamino-4-fluoro-pyrrolidine-1,2-dicarboxylic acid 1-[(1-carbamoyl-1H-indol-3-yl)-amide] 2-(3-chloro-2-fluoro-benzylamide)]
  IC50: 187 nM

## CC(=O)c1cn(CC(=O)N2C[C@H]3C[C@H]3[C@H]2C(=O)NCc2cccc(Cl)c2F)c2ncccc12 [Example 538, (1R,2S,5S)-3-[2-(3-Acetyl-pyrrolo[2,3-b]pyridin-1-yl)-acetyl]-3-aza-bicyclo[3.1.0] hexane-2-carboxylic acid 3-chloro-2-fluoro-benzylamide]
  IC50: 911 nM

## NC[C@H]1CC[C@@H](C(=O)Nc2cccc(OC(F)(F)F)c2)N1C(=O)Nc1cn(C(N)=O)c2ccccc12 [Example 402, (2S,5R)-5-Aminomethyl-pyrrolidine-1,2-dicarboxylic acid 1-[(1-carbamoyl-1H-indol-3-yl)-amide]2-[(3-trifluoromethoxy-phenyl)-amide]]
  IC50: 300 nM

## CCc1cccc(NC(=O)[C@@H]2CCCN2C(=O)Nc2cn(C(N)=O)c3ccccc23)n1 [Example 238, (S)-Pyrrolidine-1,2-dicarboxylic acid 1-[(1-carbamoyl-1H-indol-3-yl)-amide] 2-[(6-ethyl-pyridin-2-yl)-amide]]
  IC50: 650 nM

## NC(=O)n1cc(NC(=O)N2C[C@@H](N)C[C@H]2C(=O)NCc2c(F)ccc(Cl)c2F)c2ccccc21 [Example 62, (2S,4S)-4-Amino-pyrrolidine-1,2-dicarboxylic acid 1-[(1-carbamoyl-1H-indol-3-yl)-amide] 2-(3-chloro-2,6-difluoro-benzylamide)]
  IC50: 85 nM

## NC(=O)n1cc(NC(=O)N2[C@H](C(=O)NCc3cccc(Cl)c3F)C[C@@]3(CO)C[C@@H]23)c2ccccc21 [Example 358, 1R,3S,5S)-5-Hydroxymethyl-2-aza-bicyclo[3.1.0]hexane-2,3-dicarboxylic acid 2-[(1-carbamoyl-1H-indol-3-yl)-amide]3-(3-chloro-2-fluoro-benzylamide]
  IC50: 8 nM

## NC(=O)n1cc(CC(=O)N2C[C@@](F)(CO)C[C@H]2C(=O)NCc2cccc(Cl)c2F)c2ccccc21 [Example 451, 3-{2-[(2S,4R)-2-(3-Chloro-2-fluoro-benzylcarbamoyl)-4-fluoro-4-hydroxymethyl-pyrrolidin-1-yl]-2-oxo-ethyl}-indole-1-carboxylic acid amide]
  IC50: 90 nM

## CN(C)C[C@@]1(F)C[C@@H](C(=O)NCc2cccc(Cl)c2F)N(C(=O)Cc2cn(C(N)=O)c3ccccc23)C1 [Example 445, 3-{2-[(2S,4S)-2-(3-Chloro-2-fluoro-benzylcarbamoyl)-4-dimethylaminomethyl-4-fluoro-pyrrolidin-1-yl]-2-oxo-ethyl}-indole-1-carboxylic acid amide]
  IC50: 580 nM

## NC(=O)n1cc(NC(=O)N2C[C@@H](N)C[C@H]2C(=O)NCc2ccc(F)c(Cl)c2)c2ccccc21 [Example 56, (2S,4S)-4-Amino-pyrrolidine-1,2-dicarboxylic acid 1-[(1-carbamoyl-1H-indol-3-yl)-amide] 2-(3-chloro-4-fluoro-benzylamide)]
  IC50: 1950 nM

## CC1(C)CC[C@@H](C(=O)NCc2cccc(Cl)c2F)N1C(=O)Nc1cn(C(N)=O)c2ccccc12 [Example 302, (S)-5,5-Dimethyl-pyrrolidine-1,2-dicarboxylic acid 1-[(1-carbamoyl-1H-indol-3-yl)-amide] 2-(3-chloro-2-fluoro-benzylamide)]
  IC50: 75 nM

## CC(=O)c1cn(CC(=O)N2[C@@H]3C[C@@H]3C[C@H]2C(=O)N[C@H](CN(C)C)c2cccc(Cl)c2F)c2ccccc12 [Example 522, (1R,3S,5R)-2-[2-(3-Acetyl-indol-1-yl)-acetyl]-2-aza-bicyclo[3.1.0]hexane-3-carboxylic acid [(S)-1-(3-chloro-2-fluoro-phenyl)-2-dimethylamino-ethyl]-amide]
  IC50: 415 nM

## CC(=O)c1nn(CC(=O)N2[C@@H]3C[C@@H]3C[C@H]2C(=O)Nc2cccc(Br)n2)c2ccc(OCc3ncccn3)cc12 [Example 748, (1R,3S,5R)-2-{2-[3-Acetyl-5-(pyrimidin-2-ylmethoxy)-indazol-1-yl]-acetyl}-2-aza-bicyclo[3.1.0]hexane-3-carboxylic acid (6-bromo-pyridin-2-yl)-amide]
  IC50: 4 nM

## NC(=O)n1cc(NC(=O)N2C3CC3C[C@H]2C(=O)NCc2cccc(C(F)(F)F)c2F)c2ccccc21 (stereo partly drawn) [Example 261, (1R,3S,5R)-2-Aza-bicyclo[3.1.0]hexane-2,3-dicarboxylic acid 2-[(1-carbamoyl-1H-indol-3-yl)-amide] 3-(2-fluoro-3-trifluoromethyl-benzylamide)]
  IC50: 75 nM

## NC(=O)n1cc(NC(=O)N2C[C@@H]3C[C@@H]3[C@H]2C(=O)N[C@H](CO)c2cccc(Cl)c2F)c2ccccc21 [Example 207, (1S,2S,5R)-3-Azabicyclo[3.1.0]hexane-2,3-dicarboxylic acid 3-[(1-carbamoyl-1H-indol-3-yl)-amide] 2-{[(S)-1-(3-chloro-2-fluoro-phenyl)-2-hydroxy-ethyl]-amide}]
  IC50: 321 nM

## COC(=O)[C@H](CC(C)C)NC(=O)[C@@H]1C[C@H](N)CN1C(=O)Nc1cn(C(N)=O)c2ccccc12 [Example 95, (S)-2-{[(2S,4S)-4-Amino-1-(1-carbamoyl-1H-indol-3-ylcarbamoyl)-pyrrolidine-2-carbonyl]-amino}-4-methyl-pentanoic acid methyl ester]
  IC50: 1350 nM

## C[C@]1(O)C[C@@H](C(=O)NCc2cccc(Cl)c2F)N(C(=O)Nc2cn(C(N)=O)c3ccccc23)C1 [Example 164, (2S,4S)-4-Hydroxy-4-methyl-pyrrolidine-1,2-dicarboxylic acid 1-[(1-carbamoyl-1H-indol-3-yl)-amide] 2-(3-chloro-2-fluoro-benzylamide)]
  IC50: 400 nM

## CO[C@H]1[C@@H](C(=O)NCc2cccc(Cl)c2F)N(C(=O)Cn2nc(C(N)=O)c3ccncc32)C[C@@H]1F [Example 662, 1-{2-[(2S,3S,4S)-2-(3-Chloro-2-fluoro-benzylcarbamoyl)-4-fluoro-3-methoxy-pyrrolidin-1-yl]-2-oxo-ethyl}-1H-pyrazolo[3,4-c]pyridine-3-carboxylic acid amide]
  IC50: 13 nM

## CC(=O)c1cn(CC(=O)N2[C@@H]3C[C@@H]3C[C@H]2C(=O)NCc2cccc(Cl)c2F)c2c(C(=O)O)cccc12 [Example 601, 3-Acetyl-1-{2-[(1R,3S,5R)-3-(3-chloro-2-fluoro-benzylcarbamoyl)-2-aza-bicyclo[3.1.0]hex-2-yl]-2-oxo-ethyl}-1H-indole-7-carboxylic acid]
  IC50: 110 nM
